Laboratory results: PubChem BioAssay (NCI)
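A five-concentration, 48-hour dose response in 96-well plates underlies each endpoint, interpolated linearly between surrounding concentrations. Here, GI50 denotes the concentration required for 50% inhibition of growth. TGI: total growth inhibition.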

Assays:
Experiment in all cases: NCI tumour cell line growth inhibition, 48 h
786-0 renal = system: 786-0 renal
HCT-116 colon = system: HCT-116 colon
HCT-15 colon = system: HCT-15 colon
KM12 colon = system: KM12 colon
LOX IMVI melanoma = system: LOX IMVI melanoma
M14 melanoma = system: M14 melanoma
NCI-H23 lung = system: NCI-H23 lung
OVCAR-8 ovarian = system: OVCAR-8 ovarian
SN12C renal = system: SN12C renal
SW-620 colon = system: SW-620 colon

Compound	GI50 (786-0 renal) [nM]	TGI (786-0 renal) [µM]	GI50 (HCT-116 colon) [nM]	TGI (HCT-116 colon) [µM]	GI50 (HCT-15 colon) [µM]	TGI (HCT-15 colon) [µM]	GI50 (KM12 colon) [nM]	TGI (KM12 colon) [µM]	GI50 (LOX IMVI melanoma) [nM]	TGI (LOX IMVI melanoma) [µM]	GI50 (M14 melanoma) [µM]	TGI (M14 melanoma) [µM]	GI50 (NCI-H23 lung) [nM]	TGI (NCI-H23 lung) [µM]	GI50 (OVCAR-8 ovarian) [µM]	TGI (OVCAR-8 ovarian) [µM]	GI50 (SN12C renal) [nM]	TGI (SN12C renal) [µM]	GI50 (SW-620 colon) [nM]	TGI (SW-620 colon) [µM]
Cc1nnc(-c2ccc(-c3nc4ccccc4o3)cc2)o1	> 100000	> 100	> 100000	> 100	70.8	> 100	43300	> 100	> 100000	> 100	> 100	> 100	> 100000	> 100	85.6	> 100	> 100000	> 100	> 100000	> 100
Oc1ccc(Cl)cc1-c1cc(-c2ccc(F)cc2)n[nH]1	1820	3.41	2000	5.64	0.416	22.5	1010	2.54	1510	3.55	3.5	17.2	1610	4.09	1.85	5.39	2610	13.3	2640	10.5
COc1c(N2CCN(Cn3c(O)c(N=NC(=O)c4ccncc4)c4cc(F)ccc43)C(C)C2)c(F)cc2c(=O)c(C(=O)O)cn(C3CC3)c12 (stereo not given)	22300	> 50	8240	15	17	> 50	> 50000	> 50	24100	> 50	32.9	> 50	16700	> 50	34.8	> 50	42800	> 50	13200	> 50
COc1cc([C@@H]2c3cc4c(cc3C(OC3O[C@@H]5COC(C)O[C@H]5[C@H](O)[C@H]3O)C3COC(=O)[C@@H]32)OCO4)cc(OC)c1O (stereo not given in full)	976	3.67	1270	> 50	8.4	> 50	2460	> 24.4	444	13.7	1.37	7.83	652	6.88	1.56	> 34.8	917	12.4	670	> 27.2
